# Molecular target: Mitogen-activated protein kinase 14 (Homo sapiens) (UniProt Q16539)
# Experiment: Inhibition of p38alpha
# Sequence of Mitogen-activated protein kinase 14 (Homo sapiens) (Q16539 whole entry, looked up): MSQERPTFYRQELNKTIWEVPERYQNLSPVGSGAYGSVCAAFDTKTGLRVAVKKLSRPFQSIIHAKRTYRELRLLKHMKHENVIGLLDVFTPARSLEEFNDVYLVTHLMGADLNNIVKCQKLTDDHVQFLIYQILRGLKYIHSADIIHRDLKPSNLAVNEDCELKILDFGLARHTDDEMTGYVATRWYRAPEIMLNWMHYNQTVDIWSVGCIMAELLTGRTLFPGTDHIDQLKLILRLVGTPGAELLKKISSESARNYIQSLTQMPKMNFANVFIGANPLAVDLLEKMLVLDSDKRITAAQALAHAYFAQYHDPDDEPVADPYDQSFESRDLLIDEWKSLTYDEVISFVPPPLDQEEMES
row,Compound,IC50 [nM]
1,Cc1ccc(C(=O)NC2CC2)cc1-c1ccn2c(C3CCOCC3)nnc2c1,56
2,Cc1ccc(C(=O)NC2CC2)cc1-c1ccn2c(-c3ccccc3Cl)nnc2c1,6.3
3,Cc1ccc(C(=O)NC2CC2)cc1-c1c(F)cn2c(C(C)(C)C)nnc2c1F,49
4,Cc1c(F)cc(C(=O)NC2CC2)cc1-c1ccn2c(C(C)(C)O)nnc2c1,3.1
5,Cc1ccc(C(=O)NC2CC2)cc1-c1ccn2c(C(C)(C)C)nnc2c1,16
6,Cc1ccc(C(=O)NC2CC2)cc1-c1ccn2c(C(F)(F)F)nnc2c1,853
7,Cc1c(F)cc(C(=O)NC2CC2)cc1-c1ccn2c(-c3ccncc3Cl)nnc2c1,0.83
8,Cc1c(F)cc(C(=O)NC2CC2)cc1-c1ccn2c(C(C)(C)NS(C)(=O)=O)nnc2c1,17
9,Cc1c(F)cc(C(=O)NC2CC2)cc1-c1c(F)cn2c(C3CC3)nnc2c1F,10
10,COC(C)c1nnc2cc(-c3cc(C(=O)NC4CC4)cc(F)c3C)ccn12 (stereo not given),18
11,COC(C)c1nnc2cc(-c3cc(C(=O)NC4CC4)ccc3C)ccn12 (stereo not given),43
12,Cc1ccc(C(=O)NC2CC2)cc1-c1ccn2c(C3(C)CC3)nnc2c1,12
13,Cc1c(F)cc(C(=O)NC2CC2)cc1-c1ccn2c(C3CC3)nnc2c1,6.7
14,Cc1ccc(C(=O)NC2CC2)cc1-c1ccc2c(N3CCCCC3)noc2c1,14
15,Cc1c(F)cc(C(=O)NC2CC2)cc1-c1ccn2c(C(C)C)nnc2c1,3
16,Cc1c(F)cc(C(=O)NC2CC2)cc1-c1ccn2c(C(C)(C)C)nnc2c1,2
17,Cc1c(F)cc(C(=O)NC2CC2)cc1-c1c(F)cn2c(C(C)C)nnc2c1F,6.7
18,Cc1c(F)cc(C(=O)NC2CC2)cc1-c1c(F)cn2c(-c3ccncc3Cl)nnc2c1F,23

row,Compound,IC50 [nM]
1,Cc1c(F)cc(C(=O)NC2CC2)cc1-c1ccn2c(C3(C)CC3)nnc2c1,0.64
2,Cc1c(F)cc(C(=O)NC2CC2)cc1-c1ccn2c(C(N)=O)nnc2c1,102
3,Cc1c(F)cc(C(=O)NC2CC2)cc1-c1c(F)cn2c(C(C)(C)C)nnc2c1F,6.2
4,Cc1ccc(C(=O)NC2CC2)cc1-c1ccn2c(C(C)C)nnc2c1,27
5,Cc1c(F)cc(C(=O)NC2CC2)cc1-c1ccn2c(C(F)(F)F)nnc2c1,85
6,Cc1c(F)cc(C(=O)NC2CC2)cc1-c1c(F)cn2c(C(C)(C)N)nnc2c1F,12
7,Cc1c(F)cc(C(=O)NC2CC2)cc1-c1ccn2c(-c3ccccc3Cl)nnc2c1,1.6
8,Cc1c(F)cc(C(=O)NC2CC2)cc1-c1ccn2c(C3CCC3)nnc2c1,1.9
9,CC(=O)NC(C)(C)c1nnc2cc(-c3cc(C(=O)NC4CC4)cc(F)c3C)ccn12,253
10,CC(C)(C)c1nnc2ccc(Sc3ccc(F)cc3F)cn12,62
11,Cc1ccc(C(=O)NC2CC2)cc1-c1ccn2c(-c3ccncc3Cl)nnc2c1,38
12,Cc1c(F)cc(C(=O)NC2CC2)cc1-c1c(F)cn2c(C(C)(C)N(C)C)nnc2c1F,15
13,Cc1ccc(C(=O)NC2CC2)cc1-c1ccn2c(C3CCC3)nnc2c1,20
14,COC(C)(C)c1nnc2cc(-c3cc(C(=O)NC4CC4)cc(F)c3C)ccn12,9.4
15,Cc1c(F)cc(C(=O)NC2CC2)cc1-c1ccn2c(C(C)(C)N)nnc2c1,15.4
16,Cc1c(F)cc(C(=O)NC2CC2)cc1-c1ccn2c(C(C)(C)N(C)C)nnc2c1,1.7
17,Cc1c(F)cc(C(=O)NC2CC2)cc1-c1ccn2c(C3CCOCC3)nnc2c1,30

# From BindingDB's records for doi:10.1016/j.bmcl.2012.03.099 (Rhône-Poulenc Rorer, 2012)
